Experiments:
proximal jejunum = assay: In situ jejunal perfusion, OCT absorption into portal vein blood; type: in vivo, rat; conditions: for AUC, % of the correspondent control group (Group A1): PH rats; for AUC, % of the correspondent control group (Group A1) / AUC, % of the correspondent control (Group A; OCT only): portal vein blood 5-60 min; for AUC, % of the correspondent control (Group A; OCT only): healthy rats
Experimental: The experimental procedure was performed as previously reported. Briefly, the mean length of the proximal jejunum (approximately 2 cm distal to the ligament of Treitz) was 10 ± 1 cm. An oxygenated Krebs–Ringer bicarbonate buffer (KRB) solution (pH 7.4) containing 0.5 mM MgCl2, 4.5 mM KCl, 120 mM NaCl, 0.7 mM Na2HPO4, 1.5 mM NaH2PO4, 1.2 mM CaCl2, 15 mM NaHCO3, and 10 mM glucose was perfused at a flow rate of 0.4 mL/min using a peristaltic pump through an inlet tube kept at 37 °C. […] The AUC was calculated using the integral method. These experiments were performed both in healthy and PH rats; the latter was called Group A1, B1, C1, and D1 (n = 4 per group).
(§1) Frozen samples were thawed at room temperature prior to their preparation. A 200-µL aliquot of cell lysate containing 1 mL Tris, 99 mL D-Hank’s, and 200 µL methyl cyanide was mixed with the sample obtained from Caco-2 experiments. The mixture was then vortexed for 1 min and centrifuged at 12,000×g for 10 min. The supernatant was transferred to a clean glass tube and evaporated to dryness at 40 °C under nitrogen. A 10-μL aliquot was injected for LC − MS/MS analysis. A total of 200 μL methanol was added to a 50-μL sample of plasma, and the mixture was vortexed and centrifuged as described above to remove precipitated proteins. A total of 200 μL supernatant was transferred and evaporated as described for the Caco-2 samples. The residue was then diluted with 100 μL mobile phase and an aliquot of 10 μL was used for LC − MS/MS analysis.
(§2) Isocratic chromatographic separation was performed using a Hypersil BDS-C18 column (150 mm × 4.6 mm i.d., 5 µm; Dalian Elite Analytical Instruments Co. Ltd., China) maintained at room temperature. A mixture of 40% methanol-60% water with 0.1% formic acid (60:40, v/v) was used as the mobile phase at a flow rate of 0.5 mL/min. An API 3200 triple-quadrupole mass spectrometer (Applied Biosystems, Concord, Ontario, Canada) was operated with a Turbo Ionspray interface in positive ion mode. The ion spray voltage was set to + […], heater gas temperature to 500 °C, nebulizer gas (Gas 1) at 40 psi, heater gas (Gas 2) at 40 psi, curtain gas at 10 psi, and collision gas at 16 psi.

jejunum everted sac = assay: In vitro everted intestinal sac preparation, OCT uptake; type: in vitro ADME, rat; conditions: for AUC, % of the correspondent control group (Group A1): PH rats; for AUC, % of the correspondent control group (Group A1) / AUC, % of the correspondent control group (Group A): sac lumen 10-120 min; for AUC, % of the correspondent control group (Group A): healthy rats
Experimental: Rat jejunum (10 ± 1 cm) was transected approximately 2 cm distal to the ligament of Treitz. […] The AUC was calculated using the trapezoid method. These experiments were performed in both control and PH rats; the latter was called Group A1, B1, C1, and D1 (n = 4 per group).
as §2

[1] = Bi-directional Caco-2 permeability (transport) assay; type: in vitro ADME, human
Experimental: (§3) Caco-2 cells (purchased from the Type Culture Collection of the Chinese Academy of Sciences, Shanghai, China) at passage 30 to 33 were used in this study. Cells were routinely cultured as previously described with minor modifications. Cells were seeded onto Transwell inserts in 12-well dishes at a density of 5 × 10^5 cells/well (#3401; 0.4 µm pore size, growth area of 1.13 cm^2, Corning, NY, USA), and the medium was replaced with D-Hanks solution every other day except for the treatment days.
Cell monolayer integrity was evaluated through the transepithelial electrical resistance (TEER) using a Millicell ERS resistance system (Millipore, Bedford, MA, USA) at 37 °C. Each TEER value was corrected for background resistance determined on an extracellular matrix-coated cell culture insert without cells.
Caco-2 transport study was performed as previously described. […] A to B assay was performed to determine the extent of OCT absorption, while B to A assay was performed to measure OCT secretion. As regard A to B assay, the apical (upper) chamber was filled with 1.6 mL test drug solution in HBSS, while the receiver basolateral (lower) compartment was filled with 0.6 mL HBSS alone. Conversely, in B to A assay the upper and lower chambers were filled with 0.6 mL HBSS and 1.6 mL test drug, respectively. […] The TEER value was determined at different incubation times to verify the integrity of the monolayer after buffer change. […] The permeability direction rate (PDR) was calculated by the ratio of Papp in the B to A direction versus that in the A to B direction, as follows: PDR=Papp(BtoA)/Papp(AtoB)
as §1, §2

Caco-2 cells = type: cell-based, human; conditions: OCT concentrations of 1, 10, and 50 µM; data not shown
Experimental: as §3

CYP3A = assay: OCT metabolism by CYP3A in rat intestinal microsomes; type: in vitro ADME
Experimental: Microsomes from the small intestine of healthy rats and PH rats were obtained as previously described, and their protein concentration (0.53 ± 0.05 mg/mL and 0.52 ± 0.06 mg/mL total protein, respectively) was measured using the BCA method (Beijing Solarbio Science & Technology Co., Ltd). […] CYP3A activity was measured using a fluorescent quantitative detection kit (Genmed Scientifics Inc., U.S.A.) with the NADPH regenerating system after pre-incubation at 37 °C for 0, 2, 10, 20 or 30 min. […] The organic phase was evaporated to dryness and the OCT content in the residue was measured by LC–MS/MS.
Each sample was tested 3 times.
as §2

recombinant human CYP3A4 [2] = biological target: T1, recombinant human CYP3A4 (Homo sapiens, UniProt P08684); assay: OCT metabolism by recombinant human cytochrome P450 3A4; type: in vitro ADME; conditions: 10 min incubation, CYP3A4 2.5 mg/mL, NADPH; many different metabolites by LC–MS/MS
T1 construct: purchased BD Gentest (Supersomes)
Experimental: All incubations were performed at 37 °C in a water bath. Recombinant human cDNA-expressing P450 isozyme 3A4 (BD Gentest Supersomes) was carefully thawed on ice prior to each experiment. […] […] Control samples without NADPH and samples without OCT were also included. […] Each sample was tested 4 times.
as §2

recombinant human CYP3A4 [3] = biological target: T1, recombinant human CYP3A4; assay: CYP3A4 activity with and without OCT incubation (fluorescent quantitative detection kit); type: biochemical; conditions: OCT 400 mM
Experimental: All incubations were performed at 37 °C in a water bath. Recombinant human cDNA-expressing P450 isozyme 3A4 (BD Gentest Supersomes) was carefully thawed on ice prior to each experiment. […] After a 5-min pre-incubation at 37 °C, the reaction was started by the addition of NADPH and ended 30 min later by the addition of 500 µL methanol. Control samples without NADPH and samples without OCT were also included. […] Each sample was tested 4 times.

[4] = 10 µM OCT alone, PH rats versus healthy rats
[5] = 10 µM OCT plus 1 mM probenecid (Group C1)
[6] = 10 µM OCT plus 1 mM verapamil hydrochloride (Group B1)
[7] = 10 µM OCT plus 1 mM verapamil hydrochloride plus 1 mM probenecid (Group D1)
[8] = 10 µM OCT plus 1 mM probenecid (Group C)
[9] = 10 µM OCT plus 1 mM verapamil hydrochloride (Group B)
[10] = 10 µM OCT plus 1 mM verapamil hydrochloride plus 1 mM probenecid (Group D)
[11] = Caco-2, OCT 1 μM, Control (no inhibitor)
[12] = Caco-2, OCT 1 μM, MRP2 and P-gp inhibition
[13] = Caco-2, OCT 1 μM, MRP2 inhibition (probenecid 1 mM)
[14] = Caco-2, OCT 1 μM, P-gp inhibition (rhodamine 123 1 mM)
[15] = Caco-2, OCT 10 μM, Control (no inhibitor)
[16] = Caco-2, OCT 10 μM, MRP2 and P-gp inhibition
[17] = Caco-2, OCT 10 μM, MRP2 inhibition (probenecid 1 mM)
[18] = Caco-2, OCT 10 μM, P-gp inhibition (rhodamine 123 1 mM)
[19] = Caco-2, OCT 50 μM, Control (no inhibitor)
[20] = Caco-2, OCT 50 μM, MRP2 and P-gp inhibition
[21] = Caco-2, OCT 50 μM, MRP2 inhibition (probenecid 1 mM)
[22] = Caco-2, OCT 50 μM, P-gp inhibition (rhodamine 123 1 mM)

T1 sequence (P08684 whole entry): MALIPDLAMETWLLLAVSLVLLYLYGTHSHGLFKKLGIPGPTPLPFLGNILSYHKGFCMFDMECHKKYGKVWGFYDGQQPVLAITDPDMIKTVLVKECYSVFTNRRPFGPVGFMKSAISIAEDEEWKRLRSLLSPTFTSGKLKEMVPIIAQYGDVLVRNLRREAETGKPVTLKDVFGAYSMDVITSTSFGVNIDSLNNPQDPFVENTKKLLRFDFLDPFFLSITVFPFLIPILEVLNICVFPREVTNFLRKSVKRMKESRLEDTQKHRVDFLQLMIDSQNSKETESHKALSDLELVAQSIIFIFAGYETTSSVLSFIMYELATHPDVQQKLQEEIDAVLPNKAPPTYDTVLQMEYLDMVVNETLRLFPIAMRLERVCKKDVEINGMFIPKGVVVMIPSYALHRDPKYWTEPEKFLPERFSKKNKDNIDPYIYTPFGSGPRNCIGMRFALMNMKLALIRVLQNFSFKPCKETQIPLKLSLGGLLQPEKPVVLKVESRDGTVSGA

What does the source list for `C[C@@H](O)[C@@H]1NC(=O)[C@H](CCCCN)NC(=O)[C@@H](Cc2c[nH]c3ccccc23)NC(=O)[C@H](Cc2ccccc2)NC(=O)[C@@H](NC(=O)[C@H](N)Cc2ccccc2)CSSC[C@@H](C(=O)N[C@H](CO)[C@@H](C)O)NC1=O` [OCT, octreotide]?
AUC of group A1 as % of group A (proximal jejunum; [4]): 96%; AUC, % of the correspondent control group (Group A1) (proximal jejunum; [5]): 236.28%; AUC, % of the correspondent control group (Group A1) (proximal jejunum; [6]): 384.61%; AUC, % of the correspondent control group (Group A1) (proximal jejunum; [7]): 461.78%; AUC, % of the correspondent control (Group A; OCT only) (proximal jejunum; [8]): 418.95%; AUC, % of the correspondent control (Group A; OCT only) (proximal jejunum; [9]): 521.08%; AUC, % of the correspondent control (Group A; OCT only) (proximal jejunum; [10]): 618.40%; AUC of group A1 as % of group A (jejunum everted sac; [4]): 21.54%; AUC, % of the correspondent control group (Group A1) (jejunum everted sac; [5]): 128.23%; AUC, % of the correspondent control group (Group A1) (jejunum everted sac; [6]): 151.82%; AUC, % of the correspondent control group (Group A1) (jejunum everted sac; [7]): 165.33%; AUC, % of the correspondent control group (Group A) (jejunum everted sac; [8]): 151.39%; AUC, % of the correspondent control group (Group A) (jejunum everted sac; [9]): 176.22%; AUC, % of the correspondent control group (Group A) (jejunum everted sac; [10]): 220.63%; Papp A→B [1, 11]: 0.005 ± 0.001 ×10⁻⁶ cm/s; Papp B→A [1, 11]: 0.021 ± 0.003 ×10⁻⁶ cm/s; Papp A→B [1, 12]: 0.022 ± 0.002 ×10⁻⁶ cm/s; Papp B→A [1, 12]: 0.006 ± 0.001 ×10⁻⁶ cm/s; Papp A→B [1, 13]: 0.007 ± 0.001 ×10⁻⁶ cm/s; Papp B→A [1, 13]: 0.006 ± 0.001 ×10⁻⁶ cm/s; Papp A→B [1, 14]: 0.01 ± 0.001 ×10⁻⁶ cm/s; Papp B→A [1, 14]: 0.012 ± 0.002 ×10⁻⁶ cm/s; Papp A→B [1, 15]: 0.127 ± 0.015 ×10⁻⁶ cm/s; Papp B→A [1, 15]: 0.565 ± 0.073 ×10⁻⁶ cm/s; Papp A→B [1, 16]: 0.368 ± 0.055 ×10⁻⁶ cm/s; Papp B→A [1, 16]: 0.193 ± 0.021 ×10⁻⁶ cm/s; Papp A→B [1, 17]: 0.149 ± 0.016 ×10⁻⁶ cm/s; Papp B→A [1, 17]: 0.31 ± 0.025 ×10⁻⁶ cm/s; Papp A→B [1, 18]: 0.168 ± 0.018 ×10⁻⁶ cm/s; Papp B→A [1, 18]: 0.297 ± 0.024 ×10⁻⁶ cm/s; Papp A→B [1, 19]: 0.23 ± 0.021 ×10⁻⁶ cm/s; Papp B→A [1, 19]: 1.33 ± 0.16 ×10⁻⁶ cm/s; Papp A→B [1, 20]: 1.73 ± 0.138 ×10⁻⁶ cm/s; Papp B→A [1, 20]: 0.981 ± 0.082 ×10⁻⁶ cm/s; Papp A→B [1, 21]: 0.353 ± 0.032 ×10⁻⁶ cm/s; Papp B→A [1, 21]: 1.13 ± 0.097 ×10⁻⁶ cm/s; Papp A→B [1, 22]: 1.19 ± 0.072 ×10⁻⁶ cm/s; Papp B→A [1, 22]: 1.04 ± 0.084 ×10⁻⁶ cm/s; Caco-2 cell death (LDH-cytotoxicity assay) (Caco-2 cells): No sign of Caco-2 cell death; OCT level, PH + OCT group versus N + OCT group (CYP3A; intestinal microsomes of PH versus healthy rats, OCT 1000 ng/mL, 37 °C, p < 0.05): significantly lower; OCT level in the presence of the CYP3A inhibitor ketoconazole (CYP3A; intestinal microsomes of healthy and PH rats, OCT 1000 ng/mL, ketoconazole 10 µM, p < 0.01): significantly and equally increased; Metabolism of OCT by CYP3A (CYP3A; rat intestinal microsomes, NADPH-generating system): metabolized by CYP3A; Metabolism of OCT by recombinant human CYP3A4 (recombinant human CYP3A4 [2]): CYP3A4 metabolized OCT; Change in activity of recombinant human CYP3A4 after pre-incubation with OCT (recombinant human CYP3A4 [3]): No changes

From PMC7789354 (BMC Gastroenterology, 2021)
